Results taken from publication PMC6511943, “Structure-Guided Drug Design of 6-Substituted Adenosine Analogues as Potent Inhibitors of Mycobacterium tuberculosis Adenosine Kinase” (Journal of Medicinal Chemistry, 2019).

Columns and labels:
[1] = molecular target: MtbAdoK (Mycobacterium tuberculosis, UniProt P9WID5); assay: MtbAdoK enzymatic assay (pyruvate kinase–lactate dehydrogenase coupled), IC50 and Ki determination; assay type: biochemical; conditions: 15.0 μM adenosine; for IC50: 60 nM enzyme; for Ki: Cheng–Prusoff for competitive inhibition, ± SD of 2 experiments
[2] = test system: Mtb mc^2 7000; assay: Antimycobacterial assay (MABA); assay type: cell-based; conditions: Mycobacterium tuberculosis, Mtb mc^2 7000, MABA, 6 days + 2 days resazurin
[3] = molecular target: T1, hAdoK (Homo sapiens, UniProt P55263); assay: hAdoK enzymatic assay (pyruvate kinase–lactate dehydrogenase coupled), Ki determination; assay type: biochemical; conditions: Cheng–Prusoff; ± SD of 2 experiments
T1 construct: His-tag with Tobacco Etch Virus (TEV) cleavage site (N); made in house; host or cells: Escherichia coli BL21 (DE3)
T1 sequence (P55263 1-345 isoform P55263-2): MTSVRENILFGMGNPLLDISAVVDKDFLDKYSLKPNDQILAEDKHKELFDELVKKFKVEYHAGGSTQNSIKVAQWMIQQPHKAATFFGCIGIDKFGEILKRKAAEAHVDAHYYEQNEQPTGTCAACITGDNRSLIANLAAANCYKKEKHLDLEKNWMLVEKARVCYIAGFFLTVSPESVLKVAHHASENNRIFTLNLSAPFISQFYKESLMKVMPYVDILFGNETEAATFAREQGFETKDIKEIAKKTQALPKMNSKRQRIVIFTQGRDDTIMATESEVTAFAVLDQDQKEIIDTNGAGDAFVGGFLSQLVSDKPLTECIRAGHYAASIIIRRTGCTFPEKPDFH

MtbAdoK, sequence (P9WID5 whole entry, looked up): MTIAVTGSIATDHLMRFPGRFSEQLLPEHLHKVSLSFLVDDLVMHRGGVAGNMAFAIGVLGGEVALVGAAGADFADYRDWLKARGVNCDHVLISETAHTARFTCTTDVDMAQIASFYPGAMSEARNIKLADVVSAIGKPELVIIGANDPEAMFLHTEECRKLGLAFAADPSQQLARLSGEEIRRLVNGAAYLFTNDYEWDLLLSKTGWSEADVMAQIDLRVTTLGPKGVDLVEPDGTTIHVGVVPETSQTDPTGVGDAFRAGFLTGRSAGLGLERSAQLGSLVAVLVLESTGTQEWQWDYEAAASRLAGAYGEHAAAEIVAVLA

O=[N+]([O-])c1ccc(NC[C@H]2O[C@@H](n3cnc4c(N5CCN(c6ccc(C(F)(F)F)cc6)CC5)ncnc43)[C@H](O)[C@@H]2O)cc1 [Compound 20, (2R,3S,4R,5R)-2-(((4-Nitrophenyl)amino)methyl)-5-(6-(4-(4-(trifluoromethyl)phenyl)piperazin-1-yl)-9H-purin-9-yl)tetrahydrofuran-3,4-diol]
IC50 [1]: > 50 µM
EC50 ([2]; 192 h): ≥ 50 µM

COc1ccc(-c2ccc(N3CCN(c4ncnc5c4ncn5[C@@H]4O[C@H](CO)[C@@H](O)[C@H]4O)CC3)cc2)cn1 [Compound 9, (2R,3S,4R,5R)-2-(Hydroxymethyl)-5-(6-(4-(4-(6-methoxypyridin-3-yl)phenyl)piperazin-1-yl)-9H-purin-9-yl)tetrahydrofuran-3,4-diol]
Ki [3]: > 50 µM
Ki [1]: 0.0185 ± 6e-05 µM
EC50 [2]: > 50 µM

OC[C@H]1O[C@@H](n2cnc3c(N4CCN(c5ccc(-c6cnn(C(F)F)c6)cc5)CC4)ncnc32)[C@H](O)[C@@H]1O [Compound 13, (2R,3R,4S,5R)-2-(6-(4-(4-(1-(Difluoromethyl)-1H-pyrazol-4-yl)phenyl)piperazin-1-yl)-9H-purin-9-yl)-5-(hydroxymethyl)tetrahydrofuran-3,4-diol]
Ki [3]: ≥ 15.1 µM
Ki [1]: 0.023 ± 0.0011 µM
EC50 [2]: > 50 µM

CS(=O)(=O)Nc1ccc(NC[C@H]2O[C@@H](n3cnc4c(N5CCN(c6ccc(C(F)(F)F)cc6)CC5)ncnc43)[C@H](O)[C@@H]2O)cc1 [Compound 22, N-(4-((((2R,3S,4R,5R)-3,4-Dihydroxy-5-(6-(4-(4-(trifluoromethyl)phenyl)piperazin-1-yl)-9H-purin-9-yl)tetrahydrofuran-2-yl)methyl)amino)phenyl)methanesulfonamide]
IC50 [1]: > 50 µM
EC50 ([2]; 192 h): > 50 µM

Cc1ccc(S(=O)(=O)NC[C@H]2O[C@@H](n3cnc4c(N5CCN(c6ccc(C(F)(F)F)cc6)CC5)ncnc43)[C@H](O)[C@@H]2O)cc1 [Compound 19, N-(((2R,3S,4R,5R)-3,4-Dihydroxy-5-(6-(4-(4-(trifluoromethyl)phenyl)piperazin-1-yl)-9H-purin-9-yl)tetrahydrofuran-2-yl)methyl)-4-methylbenzenesulfonamide]
IC50 [1]: ≥ 12.5 µM
EC50 ([2]; 192 h): > 50 µM

NC[C@H]1O[C@@H](n2cnc3c(N)ncnc32)[C@H](O)[C@@H]1O [Compound 5, 5′-aminoadenosine, reference compound]
IC50 [1]: 8 µM

O[C@@H]1[C@H](O)[C@@H](CNc2ccc(F)cc2)O[C@H]1n1cnc2c(N3CCN(c4ccc(C(F)(F)F)cc4)CC3)ncnc21 [Compound 24, (2R,3S,4R,5R)-2-(((4-Fluorophenyl)amino)methyl)-5-(6-(4-(4-(trifluoromethyl)phenyl)piperazin-1-yl)-9H-purin-9-yl)tetrahydrofuran-3,4-diol]
IC50 [1]: > 50 µM
EC50 ([2]; 192 h): > 50 µM

O=C(NC[C@H]1O[C@@H](n2cnc3c(N4CCN(c5ccc(C(F)(F)F)cc5)CC4)ncnc32)[C@H](O)[C@@H]1O)c1ccccc1 [Compound 21, N-(((2R,3S,4R,5R)-3,4-Dihydroxy-5-(6-(4-(4-(trifluoromethyl)phenyl)piperazin-1-yl)-9H-purin-9-yl)tetrahydrofuran-2-yl)methyl)benzamide]
IC50 [1]: > 50 µM
EC50 ([2]; 192 h): > 50 µM

O[C@@H]1[C@H](O)[C@@H](COCc2ccccc2)O[C@H]1n1cnc2c(N3CCN(c4ccc(-c5ccccc5)cc4)CC3)ncnc21 [Compound 23, (2R,3R,4S,5R)-2-(6-(4-([1,1′-Biphenyl]-4-yl)piperazin-1-yl)-9H-purin-9-yl)-5-((benzyloxy)methyl)tetrahydrofuran-3,4-diol]
IC50 [1]: > 50 µM
EC50 ([2]; 192 h): > 50 µM

CSc1ncnc2c1ncn2[C@@H]1O[C@H](CO)[C@@H](O)[C@H]1O [Compound 4, 6-methylmercaptopurine riboside, reference compound]
IC50 [1]: 2.3 µM

NC(=O)c1cn([C@@H]2O[C@H](CO)[C@@H](O)[C@H]2O)c2ncnc(N)c12 [Compound 3, sangivamycin, reference compound]
IC50 [1]: 16.5 µM
